Laboratory results published in patent US20250282834A1, “PEPTIDE INHIBITORS FOR CHROMODOMAIN HELICASE DNA BINDING PROTEIN 4 (CHD4)” (THE REGENTS OF THE UNIVERSITY OF CALIFORNIA, priority 2022, published 2025).
Non-standard residues stand in square brackets, D forms with d. Residues, ends and D or L forms follow the SMILES beside them. No end group written: not given here. *: point of attachment. Orn = NCCC[C@H](N)C(=O)O; Cbz = O=C(OCc1ccccc1)*; βAla = NCCC(=O)O; CH2F = FC*

Legend:
CHD4 = target: T1, CHD4 (Homo sapiens, UniProt Q14839); experiment: CHD4 and LANA protein expression by IFA and western blotting in PEL cells; assay type: cell-based; conditions: for recovery of full-length CHD4 by inhibitor pretreatment before VGN73: BC3 cells, Z-VAD-FMK 50 μM or bortezomib 25 nM 1 hour, then VGN73 18 μM 8 hours
T1 construct: endogenous in cells; host or cells: BC3, BCBL-1
Experimental: FIG. 3 Effect of VGN73 on CHD4 and LANA protein in tissue culture. FIG. 3. Amount of CHD4 and LANA protein expression was evaluated by IFA. BC3 cells were treated with VGN73 (18 μM) or mutant peptide (18 μM) for 24 hours. Then the cells were stained with the indicated antibodies. The scale is indicated in the panel. Cell volume. CHD4 and LANA signal intensity were compared. **; p<0.01, ***; p<0.001 versus the VGN73 group. FIG. 3b. Amount of CHD4 and LANA protein expression in total cell lysates was evaluated by western blotting. BC3 and BCBL-1 cells were treated with VGN73 at a concentration of IC50 or starved condition for 24 hours. The respective protein band was confirmed by immunoblotting with anti-CHD4 and anti-LANA antibody. FIG. 3c. Evaluating of caspase and proteasome in CHD4 cleavage by VGN73. BC3 cells were pretreated with pan-caspase inhibitor. Z-VAD-FMK (50 μM) or proteasome inhibitor, bortezomib (25 nM) for 1 hour, followed by treated with VGN73 (18 μM) for 8 hours. The respective protein band was confirmed by immunoblotting with anti-CHD4 antibody.
BC3 cells and BCBL-1 cells were treated with VGN73 at the concentration of IC50 for 24 hours. These cells were also treated with VGN73 in media without FBS. To evaluate the effect of VGN73 on CHD4 and LANA proteins in tissue culture, IFA and western blotting were carried out, and these gene expressions were evaluated by RT-qPCR. Moreover, BC3 cells were pretreated with pan-caspase inhibitor, Z-VAD-FMK (50 μM) or proteasome inhibitor, bortezomib (25 nM) for 1 hour, followed by treated with VGN73 (18 μM) for 8 hours. BC3 cells were pretreated with lysosome inhibitor, chloroquine (7.5 μM) for 1 hour, followed by treated with VGN73 (18 μM) for 24 hours. […]
To evaluate subcellular peptide localization, IFA was carried out (FIG. 2d). […] The exposure settings and image acquisition protocols were fixed in each imaging study to enable quantitative analysis. Mean LANA and CHD4 fluorescence (measured in arbitrary units, or A.U.) per cell was subsequently calculated using onboard software and/or NIH Image (FIG. 3a(b)). […]

[1] = system: primary effusion lymphoma (PEL) cells (BC3, BCBL-1); assay type: cell-based
Experimental: FIG. 4 VGN73 inhibits cell growth on various cancer cell types and induces apoptosis and autophagy in BC3 cells. FIG. 4a. MT assays were performed with the indicated cell lines treated with various VGN73 and mutant peptide concentrations for 24 hours. The OD of mock-treated samples were set as 100%, and OD from detergent-treated cells were set as 0%. Mean percentage viability±SD was calculated for each treatment (n=3 samples/treatment). FIG. 4b. VGN73 induces apoptosis. BC3 cells were incubated with of VGN73 (18 μM) for 0, 1, 4, and 24 hours, followed by measurements of percentage apoptosis induction (Annexin V staining) by flow cytometry. Median percentage apoptosis was calculated for each treatment time (n=3 samples/treatment time) (a). […] Cleaved caspase 3 were calculated by normalizing to untreated sample, and untreated sample set as 100% (b). […] Median percentage apoptosis was calculated for each treatment time (n=3 samples/treatment) (a). […] ratios were calculated by normalizing to untreated sample, and untreated sample set as 100% (b). […] Cell viability were determined by MTT assay (n=5 samples/treatment). *; p<0.05. **; p<0.01 versus the control group, #; p<0.05 versus the Z-VAD-FMK group.
The cytotoxic activity of VGN73 and mutant peptide were measured using the MTT assay. […] The optical densities (ODs) were measured at 570 nm with a Benchmark Plus Microplate Spectrophotometer (Bio-Rad). […]

full-length Flag-CHD4 = target: T2, full-length Flag-CHD4 (Homo sapiens, UniProt Q14839); experiment: Biolayer interferometry (BLI) binding kinetics of peptides to CHD4; conditions: N-biotinylated peptides immobilized, sequentially diluted full-length Flag-CHD4
T2 construct: made in house; host or cells: Sf9 (recombinant baculovirus)
Experimental: We next examined peptide binding sites on the CHD4 domain and measured affinity to further confirm the interaction. Multiple CHD4 deletion proteins were expressed and purified from recombinant baculovirus-infected Sf9 cells with Flag-agarose beads (FIG. 7a). An equal molecular amount of recombinant proteins was coated on an ELISA plate and increasing concentrations of biotinylated peptides were incubated. […] Binding affinity to the fill-length CHD4 was also calculated with Bio-Layer Interferometry (BLI). […] The N-biotinylated VGN73 or control peptides were first immobilized on a streptavidin-coated chip, and sequentially diluted full-length Flag-CHD4 proteins were applied. The interaction was then detected with interferometry.
To evaluate of binding kinetics of VGN73 and mutant peptide to CHD4, assays were carried out by biolayer interferometry (BLI) on Octet-Red 384 (ForteBio, CA, USA) at 30° C. with shaking at 1,000 RPM. Streptavidin (SA) tips (Sartorius, Goettingen, Germany) were dipped in 200 μL of biotinylated peptide (VGN73, mutant or TAT) solution (1 μM in 1× kinetic buffer) for the loading step. […] Binding kinetics was evaluated using a 1:1 binding model by ForteBio Data Analysis 8.1 software to obtain the dissociation constant KD.

T1 sequence (Q14839 whole entry): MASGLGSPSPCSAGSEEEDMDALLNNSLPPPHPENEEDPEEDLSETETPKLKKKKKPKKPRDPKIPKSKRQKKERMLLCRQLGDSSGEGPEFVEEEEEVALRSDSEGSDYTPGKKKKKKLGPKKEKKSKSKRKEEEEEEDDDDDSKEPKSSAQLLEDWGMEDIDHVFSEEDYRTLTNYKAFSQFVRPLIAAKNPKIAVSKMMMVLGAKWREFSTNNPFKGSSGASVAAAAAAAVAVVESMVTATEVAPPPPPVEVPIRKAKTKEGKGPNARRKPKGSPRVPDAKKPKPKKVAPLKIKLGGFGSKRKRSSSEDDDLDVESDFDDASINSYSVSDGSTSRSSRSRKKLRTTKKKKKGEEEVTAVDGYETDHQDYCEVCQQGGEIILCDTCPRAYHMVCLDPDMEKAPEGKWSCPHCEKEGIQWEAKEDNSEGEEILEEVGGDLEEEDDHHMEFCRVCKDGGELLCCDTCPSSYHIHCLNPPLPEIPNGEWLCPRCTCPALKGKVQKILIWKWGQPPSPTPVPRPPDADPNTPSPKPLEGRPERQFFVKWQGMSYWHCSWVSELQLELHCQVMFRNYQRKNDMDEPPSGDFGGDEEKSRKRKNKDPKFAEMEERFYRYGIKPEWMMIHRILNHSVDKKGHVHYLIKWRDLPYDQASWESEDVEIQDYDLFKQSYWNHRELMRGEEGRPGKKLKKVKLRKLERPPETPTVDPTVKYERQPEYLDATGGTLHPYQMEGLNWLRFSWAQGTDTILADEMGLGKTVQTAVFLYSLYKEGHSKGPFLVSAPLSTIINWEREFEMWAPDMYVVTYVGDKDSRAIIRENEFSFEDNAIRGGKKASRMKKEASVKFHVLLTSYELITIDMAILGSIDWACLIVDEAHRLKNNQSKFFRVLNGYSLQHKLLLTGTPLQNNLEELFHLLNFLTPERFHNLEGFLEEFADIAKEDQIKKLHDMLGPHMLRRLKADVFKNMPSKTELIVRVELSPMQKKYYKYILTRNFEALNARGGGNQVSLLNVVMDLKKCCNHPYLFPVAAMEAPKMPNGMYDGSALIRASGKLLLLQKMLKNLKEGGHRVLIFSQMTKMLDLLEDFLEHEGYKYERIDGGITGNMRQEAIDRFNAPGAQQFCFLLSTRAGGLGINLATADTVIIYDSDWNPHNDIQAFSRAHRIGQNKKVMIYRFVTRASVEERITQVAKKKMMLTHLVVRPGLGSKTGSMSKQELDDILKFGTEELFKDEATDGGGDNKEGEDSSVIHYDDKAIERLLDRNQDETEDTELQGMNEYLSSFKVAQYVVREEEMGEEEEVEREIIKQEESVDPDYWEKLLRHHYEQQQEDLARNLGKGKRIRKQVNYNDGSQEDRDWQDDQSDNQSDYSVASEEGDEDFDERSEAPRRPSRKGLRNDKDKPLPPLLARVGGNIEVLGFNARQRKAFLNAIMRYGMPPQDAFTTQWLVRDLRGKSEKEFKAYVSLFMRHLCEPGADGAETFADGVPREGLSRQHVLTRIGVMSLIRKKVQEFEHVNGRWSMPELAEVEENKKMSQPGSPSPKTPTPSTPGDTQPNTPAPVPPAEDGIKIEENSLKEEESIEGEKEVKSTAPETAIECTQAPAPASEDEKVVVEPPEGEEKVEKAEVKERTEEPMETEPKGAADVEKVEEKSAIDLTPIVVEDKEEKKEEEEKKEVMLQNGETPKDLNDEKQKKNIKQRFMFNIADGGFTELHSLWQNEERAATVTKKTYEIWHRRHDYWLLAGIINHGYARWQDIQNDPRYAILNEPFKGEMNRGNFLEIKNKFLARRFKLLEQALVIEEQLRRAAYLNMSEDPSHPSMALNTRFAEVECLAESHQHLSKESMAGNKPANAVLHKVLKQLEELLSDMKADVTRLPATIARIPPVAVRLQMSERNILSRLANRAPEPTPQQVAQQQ
T2 sequence (Q14839 whole entry): as above

Molecule | recovery of full-length CHD4 by inhibitor pretreatment before VGN73 (CHD4) | rescue from VGN73 cell death by Z-VAD-FMK pretreatment (MTT) ([1]; BC3 and BCBL-1, Z-VAD-FMK 40 μM 1 hr, VGN73 18 or 13 μM) | binding to CHD4 by BLI (full-length Flag-CHD4) | CHD4 cleavage (western blotting, total cell lysates) (CHD4; BC3 and BCBL-1 cells, IC50 concentration, 24 hours) | cancer cell death in vitro tissue culture [1]
COC(=O)C[C@H](NC(=O)[C@H](C)NC(=O)[C@@H](NC(=O)OCc1ccccc1)C(C)C)C(=O)CF [Z-VAD-FMK] (Cbz-Val-Ala-Asp(OMe)-CH2F) | recovered full-length CHD4 | partially rescued BC3 and BCBL-1 from cell death |  |  | 
CC(C)C[C@H](NC(=O)[C@H](Cc1ccccc1)NC(=O)c1cnccn1)B(O)O [proteasome inhibitor, bortezomib] | not a proteasome inhibitor |  |  |  | 
{d-Arg}KKRR{ORN]RRR{β-Ala} (RKKRRXRRRA; d-Arg, ornithine, beta-Ala non-natural residues; Description of sequence: modified TAT amino acid sequence; SITE 1 d-arginine; MOD_RES 6 ORN; MOD_RES 10 beta-alanine) |  |  | not mutant or TAT alone binds to CHD4 |  | 
{d-Arg}KKRR{ORN}RRR{β-Ala}AKHAVISAGNDPYGLKK ([dR]KKRR[Orn]RRR[βAla]AKHAVISAGNDPYGLKK) [mutant peptide, mutant peptide with three amino acid changes at conserved amino acids] |  |  | mutations eliminated the interaction | did not have such effects | not mutant peptide
